Results: EP4813403A1, “USE OF GLP-1R/GIPR DOUBLE-TARGET AGONIST IN PREPARING ANIMAL DRUG” (Hangzhou Zhongmeihuadong Pharmaceutical Co., Ltd., priority 2023, dated 2025)

Assays:
[1] = Pharmacokinetics in C57 mice; conditions: C57, mouse, in vivo
Method: After subcutaneous or intravenous administration to C57 mice, plasma was collected and the drug concentration in plasma was determined to illustrate the in vivo pharmacokinetic properties of the compound according to the present invention. […] 20.0 µL of thawed plasma sample was taken. 20 µL of 50% aqueous methanol solution (containing 100 ng mL^-1 Tolbutamide) and 60 µL of acetonitrile were added sequentially to precipitate protein. The mixture was vortexed for 5 minutes, and centrifuged at 4815 rpm for 8 minutes. 50.0 µL of the supernatant was taken, into which 50.0 µL of 0.5% aqueous formic acid solution was added. The mixture was vortexed for 5 minutes. 50 µL of the mixture solution was sampled and injected into the LC-MS/MS to determine the drug concentration in plasma. Based on the drug concentration in plasma of the compounds in C57 mice, the pharmacokinetic parameters were calculated by applying the software Winnolin 8.3 in a non-compartmental model, and the results were shown in Table 7 and Table 8 below. Table 7 Average Pharmacokinetic Parameters after Single Subcutaneous Administration to Mice

[2] = Repeated administration on male rats for 2 weeks (toxicity, toxicokinetics); format: in vivo, SD male rats
Method: 77 SD male rats (SPF grade) were selected and randomly divided into 10 groups based on body weight. Group 1 was the vehicle control group, including 5 animals. […] Group 5 to Group 7 were the groups administrated with the test substance 1; and Group 8 to Group 10 were the groups administrated with the test substance 2, each group including 8 animals, wherein 5 animals for primary test, and 3 animals for toxicokinetics test, and the administration dose was 1, 3 and 10 mg/kg respectively. Each of the above groups was continuously administered twice a week for 2 weeks (administrating at Day 1, Day 5, Day 8, Day 12 and Day 15).
During the experiment, the cage condition monitoring, detailed clinical observations, determination of the food consumption, determination of body weight, measurement of the blood biochemical and hematology indicator, investigation of the gross anatomy, weighing of the organ, studying on toxicokinetic were performed on all the groups of the animals.
Original data during each time period was tabulated. The average values and standard deviations and/or group change were calculated for each assay endpoint based on the group and sex. For each endpoint, the administrated group will be compared with the control group in the following aspect. A logarithmic conversion was performed to the endpoint data as desired prior to the start of the specific analyses.

[3] = in vivo

## CC[C@H](C)[C@H](NC(=O)[C@H](CC(C)C)NC(=O)[C@H](Cc1c[nH]c2ccccc12)NC(=O)[C@H](CCC(N)=O)NC(=O)[C@@H](NC(=O)[C@H](Cc1ccccc1)NC(=O)[C@H](C)NC(=O)[C@H](CCCCNC(=O)COCCOCCNC(=O)COCCOCCNC(=O)CC[C@H](NC(=O)CCCCCCCCCCCCCCCCCCC(=O)O)C(=O)O)NC(=O)[C@H](CCC(N)=O)NC(=O)[C@H](C)NC(=O)[C@@H](NC(=O)[C@H](CCCCN)NC(=O)[C@H](CC(=O)O)NC(=O)[C@H](CC(C)C)NC(=O)C(C)(C)NC(=O)[C@@H](NC(=O)[C@H](CO)NC(=O)[C@H](Cc1ccc(O)cc1)NC(=O)[C@H](CC(=O)O)NC(=O)[C@H](CO)NC(=O)[C@@H](NC(=O)[C@H](Cc1ccccc1)NC(=O)[C@@H](NC(=O)CNC(=O)[C@H](CCC(=O)O)NC(=O)C(C)(C)NC(=O)[C@@H](N)Cc1ccc(O)cc1)[C@@H](C)O)[C@@H](C)O)[C@@H](C)CC)[C@@H](C)CC)C(C)C)C(=O)N[C@@H](C)C(=O)NCC(=O)NCC(=O)N1CCC[C@H]1C(=O)N[C@@H](CO)C(=O)N[C@@H](CO)C(=O)NCC(=O)N[C@@H](C)C(=O)N1CCC[C@H]1C(=O)N1CCC[C@H]1C(=O)N1CCC[C@H]1C(=O)N[C@@H](CO)C(N)=O [Tirzepatide, reference compound]
[1]; iv, MRT(0-t)
  MRT: 11.4 h
[1]; iv, MRT(0-∞)
  MRT: 12 h
[1]; sc, MRT(0-t)
  MRT: 14.5 h
[1]; sc, MRT(0-∞)
  MRT: 15.3 h
[2]; MTD for 2 weeks, rats
  MTD: 2077 nmol/kg (MTD for 2 weeks)
[2]; SD male rats
  dose at which decrease of the body weight was observed after the first administration: ≥ 3 mg/kg
[2]; SD male rats, 1, 3, 10 mg/kg twice a week for 2 weeks
  Gross Anatomy: no abnormalities were found
[2]; SD male rats, administered twice a week for 2 weeks
  accumulation (toxicokinetic): no substantial accumulation
[2]; Sprague-Dawley, rat, in vivo, SD male rats, administered twice a week for 2 weeks
  MTD at 336 h: ≥ 10 mg/kg
[2]; rat 2-week MTD versus efficacy dose
  Safety Window (based on dosage): 416
[3]
  heart rate recovery time: > 120 h
